The term melting point denotes the temperature of the solid-liquid transition.

This note sets out measurements from patent publication US20040180902A1, “3-Substituted quinoline-4-carboxamide derivatives as nk-3 and nk-2 receptor antagonists” (priority 2001, published 2004).

Regarding `C[C@H](NC(=O)c1c(CN2CCN(CCO)C(=O)C2)c(-c2cccs2)nc2ccccc12)C1CCCCC1` [Example 1, 3-[4-(2-Hydroxy-ethyl)-3-oxo-piperazin-1-ylmethyl]-2-thiophen-2-yl-quinoline-4-carboxylic acid ((S)-1-cyclohexyl-ethyl)-amide], the melting point is 212 to 215 °C. The value for `C[C@H](NC(=O)c1c(CN2CCNC(=O)C2)c(-c2ccccc2)nc2cc(F)c(F)cc12)C1CCCCC1` [Example 2, 6,7-Difluoro-3-(3-oxo-piperazin-1-ylmethyl)-2-phenyl-quinoline-4-carboxylic acid ((S)-1-cyclohexyl-ethyl)-amide] was 185 to 190 °C; that for `C[C@H](NC(=O)c1c(CN2CCN(CCOCCO)C(=O)C2)c(-c2ccccc2)nc2ccc(F)cc12)C1CCCCC1` [Example 3, 6-Fluoro-3-{4-[2-(2-hydroxy-ethoxy)-ethyl]-3-oxo-piperazin-1-ylmethyl}-2-phenyl-quinoline-4-carboxylic acid ((S)-1-cyclohexyl-ethyl)-amide] was 110 to 112 °C. The figure for `C[C@H](NC(=O)c1c(CN2CCN(C[C@H](O)CO)C(=O)C2)c(-c2ccccc2)nc2ccccc12)C1CCCCC1` [Example 4, (S) 3-[4-(2,3-Dihydroxy-propyl)-3-oxo-piperazin-1-ylmethyl]-2-phenyl-quinoline-4-carboxylic acid ((S)-1-cyclohexyl-ethyl)-amide] is 125 to 127 °C. The value for `C[C@H](NC(=O)c1c(CN2CCN(C[C@@H](O)CO)C(=O)C2)c(-c2ccccc2)nc2ccccc12)C1CCCCC1` [Example 5, (R) 3-[4-(2,3-Dihydroxy-propyl)-3-oxo-piperazin-1-ylmethyl]-2-phenyl-quinoline-4-carboxylic acid ((S)-1-cyclohexyl-ethyl)-amide] was 133 to 135 °C; that for `C[C@H](NC(=O)c1c(CN2CCN(CCCO)C(=O)C2)c(-c2ccccc2)nc2ccc(F)cc12)C1CCCCC1` [Example 6, 6-Fluoro-3-[4-(3-hydroxy-propyl)-3-oxo-piperazin-1-ylmethyl]-2-phenyl-quinoline-4-carboxylic acid ((S)-1-cyclohexyl-ethyl)-amide] was 110 to 130 °C.

The compound `C[C@H](NC(=O)c1c(CN2CCN(CCO)C(=O)C2)c(-c2ccccc2)nc2ccc(F)cc12)C1CCCCC1` [Example 7, 6-Fluoro-3-[4-(2-hydroxy-ethyl)-3-oxo-piperazin-1-ylmethyl]-2-phenyl-quinoline-4-carboxylic acid ((S)-1-cyclohexyl-ethyl)-amide] returned a melting point of 120 to 122 °C.

For `C[C@H](NC(=O)c1c(CN2CCN(CCOCCO)CC2)c(-c2ccccc2)nc2ccc(F)cc12)C1CCCCC1` [Example 8, 6-Fluoro-3-{4-[2-(2-hydroxy-ethoxy)-ethyl]-piperazin-1-ylmethyl}-2-phenyl-quinoline-4-carboxylic acid ((S)-1-cyclohexyl-ethyl)-amide], the melting point is 142 to 144 °C.

With `C[C@H](NC(=O)c1c(CN2CCN(CCCO)CC2)c(-c2ccccc2)nc2ccc(F)cc12)C1CCCCC1` [Example 9, 6-Fluoro-3-[4-(3-hydroxy-propyl)-piperazin-1-ylmethyl]-2-phenyl-quinoline-4-carboxylic acid ((S)-1-cyclohexyl-ethyl)-amide], the melting point lay within 182 to 184 °C. The value for `C[C@H](NC(=O)c1c(CN2CCN(CCO)CC2)c(-c2ccccc2)nc2ccc(F)cc12)C1CCCCC1` [Example 10, 6-Fluoro-3-[4-(2-hydroxy-ethyl)-piperazin-1-ylmethyl]-2-phenyl-quinoline-4-carboxylic acid ((S)-1-cyclohexyl-ethyl)-amide] was 114 to 116 °C. The figure for `C[C@H](NC(=O)c1c(CN2CCN(CCOCCO)CC2)c(-c2cccs2)nc2ccccc12)C1CCCCC1` [Example 11, 3-{4-[2-(2-Hydroxy-ethoxy)-ethyl]-piperazin-1-ylmethyl}-2-thiophen-2-yl-quinoline-4-carboxylic acid ((S)-1-cyclohexyl-ethyl)-amide] is 182 to 188 °C. The figure for `C[C@H](NC(=O)c1c(CN2CCN(CCO)CC2)c(-c2cccs2)nc2ccccc12)C1CCCCC1` [Example 12, 3-[4-(2-Hydroxy-ethyl)-piperazin-1-ylmethyl]-2-thiophen-2-yl-quinoline-4-carboxylic acid ((S)-1-cyclohexyl-ethyl)-amide] is 110 °C; for `C[C@H](NC(=O)c1c(CN2CCN(CCCO)CC2)c(-c2ccccc2)nc2ccccc12)C1CCCCC1` [Example 13, 3-[4-(3-Hydroxy-propyl)-piperazin-1-ylmethyl]-2-phenyl-quinoline-4-carboxylic acid ((S)-1-cyclohexyl-ethyl)-amide] it is 168 to 170 °C. For `C[C@H](NC(=O)c1c(CN2CCN(CCCO)C(=O)C2)c(-c2ccccc2)nc2ccccc12)C1CCCCC1` [Example 14, 3-[4-(3-Hydroxy-propyl)-3-oxo-piperazin-1-ylmethyl]-2-phenyl-quinoline-4-carboxylic acid ((S)-1-cyclohexyl-ethyl)-amide], the melting point lay in the range of 120 to 122 °C. The value for `C[C@H](NC(=O)c1c(CN2CCNCC2=O)c(-c2ccccc2)nc2ccc(F)cc12)C1CCCCC1` [Example 15, 6-Fluoro-3-(2-oxo-piperazin-1-ylmethyl)-2-phenyl-quinoline-4-carboxylic acid ((S)-1-cyclohexyl-ethyl)-amide] was 240 to 242 °C; that for `C[C@H](NC(=O)c1c(CN2CCN(CCOCCO)C(=O)C2)c(-c2ccccc2)nc2ccccc12)C1CCCCC1` [Example 16, 3-{4-[2-(2-Hydroxy-ethoxy)-ethyl]-3-oxo-piperazin-1-ylmethyl}-2-phenyl-quinoline-4-carboxylic acid ((S)-1-cyclohexyl-ethyl)-amide] was 125 to 128 °C; that for `C[C@H](NC(=O)c1c(CN2CCN(CCOCCO)C(=O)C2)c(-c2cccs2)nc2ccccc12)C1CCCCC1` [Example 17, 3-{4-[2-(2-Hydroxy-ethoxy)-ethyl]-3-oxo-piperazin-1-ylmethyl}-2-thiophen-2-yl-quinoline-4-carboxylic acid ((S)-1-cyclohexyl-ethyl)-amide] was 102 to 104 °C.

With `C[C@H](NC(=O)c1c(CN2CCN(CCCO)C(=O)C2)c(-c2cccs2)nc2ccccc12)C1CCCCC1` [Example 18, 3-[4-(3-Hydroxy-propyl)-3-oxo-piperazin-1-ylmethyl]-2-thiophen-2-yl-quinoline-4-carboxylic acid ((S)-1-cyclohexyl-ethyl)-amide], the melting point fell in the range of 117 to 119 °C.

The compound `C[C@H](NC(=O)c1c(CN2CCN(C[C@H](O)CO)CC2)c(-c2ccccc2)nc2ccccc12)C1CCCCC1` [Example 19, 3-[4-((S)-2,3-Dihydroxy-propyl)-piperazin-1-ylmethyl]-2-phenyl-quinoline-4-carboxylic acid ((S)-1-cyclohexyl-ethyl)-amide] yielded a melting point of 124 to 126 °C. The value for `C[C@H](NC(=O)c1c(CN2CCN(C[C@@H](O)CO)CC2)c(-c2ccccc2)nc2ccccc12)C1CCCCC1` [Example 20, 3-[4-((R)-2,3-Dihydroxy-propyl)-piperazin-1-ylmethyl]-2-phenyl-quinoline-4-carboxylic acid ((S)-1-cyclohexyl-ethyl)-amide] was 126 to 128 °C; that for `CC(NC(=O)c1c(CN2CCN(C[C@H](O)CO)C(=O)C2)c(-c2ccccc2)nc2ccc(F)cc12)C1CCCCC1` (stereo partly drawn) [Example 21, 3-[4-((S)-2,3-Dihydroxy-propyl)-3-oxo-piperazin-1-ylmethyl]-6-fluoro-2-phenyl-quinoline-4-carboxylic acid (1-cyclohexyl-ethyl)-amide] was 190 to 192 °C; that for `C[C@H](NC(=O)c1c(CN2CCN(C[C@@H](O)CO)C(=O)C2)c(-c2ccccc2)nc2ccc(F)cc12)C1CCCCC1` [Example 22, 3-[4-((R)-2,3-Dihydroxy-propyl)-3-oxo-piperazin-1-ylmethyl]-6-fluoro-2-phenyl-quinoline-4-carboxylic acid ((S)-1-cyclohexyl-ethyl)-amide] was 143 to 145 °C. Regarding `C[C@H](NC(=O)c1c(CN2CCN(C[C@H](O)CO)C(=O)C2)c(-c2cccs2)nc2ccccc12)C1CCCCC1` [Example 23, 3-[4-((S)-2,3-Dihydroxy-propyl)-3-oxo-piperazin-1-ylmethyl]-2-thiophen-2-yl-quinoline-4-carboxylic acid ((S)-1-cyclohexyl-ethyl)-amide], the melting point was in the range of 115 to 117 °C.

The compound `C[C@H](NC(=O)c1c(CN2CCN(C(=O)NCCO)CC2)c(-c2ccccc2)nc2ccccc12)C1CCCCC1` [Example 25, 3-[4-(2-Hydroxy-ethylcarbamoyl)-piperazin-1-ylmethyl]-2-phenyl-quinoline-4-carboxylic acid ((S)-1-cyclohexyl-ethyl)-amide] showed a melting point of 155 to 157 °C.
